Assay results as given in patent US20250179028A1, “ACRYLAMIDE COMPOUNDS” (NRG THERAPEUTICS LTD, priority 2022, published 2025).
Converted amounts (≈) assume the structure as drawn.

What was measured:
mPTP = mPTP activity (Ca2+ retention) assay in isolated rat liver mitochondria; assay type: biochemical; settings: isolated rat liver mitochondria; average value from multiple experiments (n ≥ 2)
From the text: Pharmacological inhibition or modulation of the mPTP can be measured in well characterised ‘Ca^2+ retention’ assays performed in isolated mitochondria. In vitro isolated mitochondria rapidly sequester exogenous Ca^2+ until the intramitochondrial Ca^2+ concentration reaches the threshold for mPTP activation. Once the pore is activated, mitochondrial integrity is compromised and the stored Ca^2+ is released. The distribution of Ca^2+ between extra- and intra-mitochondrial compartments can be measured in real time with the use of membrane-impermeant Ca^2+ sensitive fluorescent dyes. Depending on the configuration of the assay, inhibition or modulation of the mPTP either delays the opening of the pore or increases the concentration of Ca^2+ required to induce mPTP opening.
MPTP activity was measured in mitochondria freshly isolated from female Sprague Dawley (250 to 300 gram) rat livers using the following method. Cervical dislocation was performed on the rat. The liver was then perfused in-situ with ˜40 ml cold Dulbecco's Phosphate Buffered Saline (DPBS) prior to dissection and transferred into 30 ml Isolation Buffer (250 mM Sucrose, 10 mM KCl, 1 mM EGTA, 1 mM EDTA, 25 mM HEPES, adjusted to pH 7.5 with 1 M NaOH). Each lobe of the liver was then removed from the buffer, minced using tweezers and a scalpel into ˜5 mm pieces then transferred into a 50 ml Potterton dounce homogenization tube on ice containing 30 ml ice-cold centrifugation buffer (300 mM Trehalose, 25 mM HEPES, 1 mM EGTA, 1 mM EDTA, 10 mM KCl, adjusted to pH 7.5 with 1 M NaOH and supplemented with 0.1% bovine serum albumin (BSA) and complete protease inhibitor cocktail (one tablet of inhibitor per 50 mls of buffer). Homogenisation was carried out using a teflon pestle at 1800 rpm. The slurry was centrifuged at 800 g for 10 min at 4° C., then the supernatant centrifuged at 10,000 g for 10 min. The pellet was washed once with FLIPR assay buffer (75 mM Mannitol, 25 mM Sucrose, 5 mM Potassium Phosphate Monobasic, 20 mM Tris base, 100 mM KCl, 0.1% BSA adjusted to pH 7.4 with 5M HCl) centrifuged again, then resuspended in FLIPR assay buffer to a concentration of 8.8 mg/ml protein.
Tested compounds (10 mM stock in DMSO) were serially diluted in DMSO in half log steps to generate 10 test concentrations (final concentrations in assay 30 μM to 1 nM). An intermediate dilution of 5 μl DMSO samples into 247 μl FLIPR assay buffer was carried out prior to transfer of 5 μl into duplicate wells of a 384 well polypropylene assay plate. Control wells were 0.5% (v/v) DMSO and 5 μM cyclosporin A.
A stock mitochondria/Fluo5N assay solution was prepared in 5.6 ml FLIPR assay buffer (at RT) supplemented with succinate disodium salt (10 mM), rotenone (1 μM), Fluo5N pentapotassium salt (2 μM) and 1 ml mitochondria suspension, then transferred (15 μl) into the assay plate containing test compounds and incubated for 10 min at RT. Assay plates were then transferred to a FLIPR Tetra plate reader (Molecular Devices). Dye fluorescence was then measured every 3 sec for a total of 10 min. After 12 sec, a 2.5 μl bolus of CaCl2 (75 μM) was added from a source plate containing 675 μM CaCl2 in FLIPR assay buffer. IC50 values for tested compounds were calculated using the fluorescence value collected at the 10 min timepoint with % inhibition calculated using the DMSO control and cyclosporin A values as […] respectively.

CYP2D6 = CYP2D6 (Homo sapiens (Human), UniProt P10635); assay: Cytochrome P450 CYP2D6 inhibition in human liver microsomes; assay type: in vitro ADME; settings: probe dextromethorphan 2 µM (dextrorphan formation); 1 uM test compound, human liver microsomes; average value from two experiments; negative values = no effective inhibition
Experimental: Studies to assess tested compound mediated inhibition of cytochrome P450 enzyme isoform CYP2D6 were performed using human liver microsomes (BD Gentest) using either a single concentration (1 μM) of test compound or concentration response (0.1, 0.3, 1, 3, 10 and 30 μM) to derive an IC50. Tested compound solutions were prepared from 10 mM stocks in DMSO and diluted to 200 μM in DMSO. Reactions were prepared in a 96 deep well plate by combining 1 μl test compound with 179 μl reaction mixture (100 mM phosphate buffered saline (PBS), 0.2 mg/mL microsomes and 2 μM Dextromethorphan prepared from stocks as detailed below).
The positive control inhibitor, quinidine, was used at a final concentration of 0.5 μM when used at a single concentration. The final concentrations of quinidine used to derive an IC50 were 0, 0.1, 0.3, 1, 3, 10 and 30 μM. Plates were warmed at 37° C. for 15 min before starting reactions with 20 μl 10 mM NADPH solution in PBS and incubated for 20 min at 37° C. The assay is performed in duplicate. Reactions were quenched with 200 μl cold acetonitrile containing internal standards (200 nM labetalol, 200 nM alprazolam and 100 nM tolbutamide). The plate was centrifuged at 4000 rpm for 30 minutes, placed on ice for 20 minutes and then centrifuged at 4000 rpm for 30 minutes again to precipitate protein. 100 μL of the supernatant was transferred to a new plate and diluted with 100 μL pure water before being analysed using UPLC/MS/MS. The products of the transformation for dextromethorphan to dextrorphan was monitored by UPLC-MS/MS. The inhibition of CYP2D6 in human liver microsomes was measured as the percentage decrease in the activity of dextrorphan formation compared to non-inhibited controls (=100% activity). The IC50 value was calculated (test compound concentration which produces 50% inhibition) by using Excel Xlfit.

[1] = PBS and FaSSIF solubility; assay type: physicochemical; settings: aqueous buffer, kinetic from dmso stock; PBS pH 7.4, 2 hr at 25° C.; read-out: Solubility PBS (pH 7.4)
Experimental: Test compounds were prepared as 10 mM stocks in DMSO and 15 μl samples transferred in duplicate into 1.5 mL glass flat bottom vials (BioTech Solutions). Fasted state simulated intestinal fluid (FaSSIF) or PBS (pH 7.4) was added to each vial to final volume of 500 μl. One PTFE encapsulated stir stick (V&P Scientific) was placed in each vial before sealing with PTFE/SIL plugs (BioTech Solutions). Vials were shaken at 1100 rpm for 2 hr at 25° C. Samples were then filtered through MultiScreen Solvinert filter plates (Millipore) via vacuum filtration. Aliquots of filtrate (5 μl) plus 5 μl DMSO were diluted in 490 μl 50% acetonitrile in water containing internal standard. The filtrate was analysed and quantified against a standard of known concentration using LC-MS/MS. Solubility values of the test compound and control compound were calculated as follows: […]

CYP2D6, sequence (P10635 whole entry, canonical isoform): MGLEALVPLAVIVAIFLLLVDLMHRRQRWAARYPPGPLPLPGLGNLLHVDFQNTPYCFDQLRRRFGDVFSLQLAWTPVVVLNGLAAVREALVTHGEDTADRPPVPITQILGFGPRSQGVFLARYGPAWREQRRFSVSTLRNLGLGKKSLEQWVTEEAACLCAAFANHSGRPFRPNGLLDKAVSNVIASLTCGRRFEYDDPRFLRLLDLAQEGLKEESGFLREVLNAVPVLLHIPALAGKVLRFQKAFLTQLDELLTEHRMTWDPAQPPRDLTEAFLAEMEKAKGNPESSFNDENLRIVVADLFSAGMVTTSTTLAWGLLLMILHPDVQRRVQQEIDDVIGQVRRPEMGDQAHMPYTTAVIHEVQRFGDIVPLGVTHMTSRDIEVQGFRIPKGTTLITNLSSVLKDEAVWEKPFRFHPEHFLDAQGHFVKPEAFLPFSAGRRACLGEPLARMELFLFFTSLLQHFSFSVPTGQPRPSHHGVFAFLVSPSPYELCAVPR

Cc1n[nH]c2cc(/C=C/C(=O)NC3CCc4ccccc43)cc(F)c12 (stereo not shown) [Example 34, (E)-N-(2,3-dihydro-1H-inden-1-yl)-3-(4-fluoro-3-methyl-1H-indazol-6-yl)acrylamide]
mPTP Rat liver pIC50 (mPTP): 6.7
inhibition at 20 min, 1 µM (CYP2D6): 4.37%

Cc1ccc(F)cc1NC(=O)/C=C/c1ccc2oc(=O)[nH]c2c1 [Example 17, (E)-N-(5-fluoro-2-methylphenyl)-3-(2-oxo-2,3-dihydrobenzo[d]oxazol-5-yl)acrylamide]
solubility at 2 h [1]: 0.15 µM (≈ 0.0468 µg/mL)
inhibition at 20 min, 1 µM (CYP2D6): 1.91%

Cc1c(Cl)cccc1N(C)C(=O)/C=C/c1ccc2oc(=O)[nH]c2c1 [Example 48, (E)-N-(3-chloro-2-methylphenyl)-N-methyl-3-(2-oxo-2,3-dihydrobenzo[d]oxazol-5-yl)acrylamide]
mPTP Rat liver pIC50 (mPTP): 5.9
inhibition at 20 min, 1 µM (CYP2D6): 6.34%

CC1Cc2ccccc2C1NC(=O)/C=C/c1ccc2c(C#N)n[nH]c2c1 (stereo not shown) [Example 44, (E)-3-(3-cyano-1H-indazol-6-yl)-N-(2-methyl-2,3-dihydro-1H-inden-1-yl)acrylamide]
mPTP Rat liver pIC50 (mPTP): 7.1
inhibition at 20 min, 1 µM (CYP2D6): 8.94%

CC(C)c1ccc(Cl)cc1NC(=O)/C=C/c1ccc2oc(=O)[nH]c2c1 [Example 15, (E)-N-(5-chloro-2-isopropylphenyl)-3-(2-oxo-2,3-dihydrobenzo[d]oxazol-5-yl)acrylamide]
mPTP Rat liver pIC50 (mPTP): 6.9
solubility at 2 h [1]: 0.03 µM (≈ 0.0107 µg/mL)
inhibition at 20 min, 1 µM (CYP2D6): -0.28%

CC1CCCC1NC(=O)/C=C/c1ccc2oc(=O)[nH]c2c1 (stereo not shown) [Example 49, (E)-N-(2-methylcyclopentyl)-3-(2-oxo-2,3-dihydrobenzo[d]oxazol-5-yl)acrylamide]
mPTP Rat liver pIC50 (mPTP): 5.8
inhibition at 20 min, 1 µM (CYP2D6): 4.52%

Cc1ccc(NC(=O)/C=C/c2ccc3c(C)n[nH]c3c2)cc1F [Example 42, (E)-N-(3-fluoro-4-methylphenyl)-3-(3-methyl-1H-indazol-6-yl)acrylamide]
mPTP Rat liver pIC50 (mPTP): 6.1
inhibition at 20 min, 1 µM (CYP2D6): -1.97%

O=C(/C=C/c1ccc2oc(=O)[nH]c2c1)NC1CCc2ccccc21 (stereo not shown) [Example 11, (E)-N-(2,3-dihydro-1H-inden-1-yl)-3-(2-oxo-2,3-dihydrobenzo[d]oxazol-5-yl)acrylamide]
mPTP Rat liver pIC50 (mPTP): 6.1
inhibition at 20 min, 1 µM (CYP2D6): -0.63%

Cc1cc(F)c(F)cc1NC(=O)/C=C/c1ccc2oc(=O)[nH]c2c1 [Example 16, (E)-N-(4,5-difluoro-2-methylphenyl)-3-(2-oxo-2,3-dihydrobenzo[d]oxazol-5-yl)acrylamide]
mPTP Rat liver pIC50 (mPTP): 6.8
inhibition at 20 min, 1 µM (CYP2D6): 1.72%

Cc1n[nH]c2cc(/C=C/C(=O)NC3CCc4cc(F)ccc43)ccc12 (stereo not shown) [Example 40, (E)-N-(5-fluoro-2,3-dihydro-1H-inden-1-yl)-3-(3-methyl-1H-indazol-6-yl)acrylamide]
mPTP Rat liver pIC50 (mPTP): 6.6
inhibition at 20 min, 1 µM (CYP2D6): 6.65%

Cc1n[nH]c2cc(/C=C/C(=O)Nc3cccc4cnn(C)c34)ccc12 [Example 39, (E)-3-(3-methyl-1H-indazol-6-yl)-N-(1-methyl-1H-indazol-7-yl)acrylamide]
mPTP Rat liver pIC50 (mPTP): 7.5
inhibition at 20 min, 1 µM (CYP2D6): 3.83%

CCc1n[nH]c2cc(/C=C/C(=O)NC3CCc4ccccc43)ccc12 (stereo not shown) [Example 32, (E)-N-(2,3-dihydro-1H-inden-1-yl)-3-(3-ethyl-1H-indazol-6-yl)acrylamide]
mPTP Rat liver pIC50 (mPTP): 6.6
inhibition at 20 min, 1 µM (CYP2D6): 4.01%

Cc1cccc(C)c1NC(=O)/C=C/c1ccc2c(C)n[nH]c2c1 [Example 31, (E)-N-(2,6-dimethylphenyl)-3-(3-methyl-1H-indazol-6-yl)acrylamide]
mPTP Rat liver pIC50 (mPTP): 7.7
inhibition at 20 min, 1 µM (CYP2D6): 19.9%

Cc1c(Cl)cccc1NC(=O)/C=C/c1ccc2oc(=O)[nH]c2c1 [Example 9, (E)-N-(3-chloro-2-methylphenyl)-3-(2-oxo-2,3-dihydrobenzo[d]oxazol-5-yl)acrylamide]
mPTP Rat liver pIC50 (mPTP): 7.4
solubility at 2 h [1]: 0.6 µM (≈ 0.197 µg/mL)
inhibition at 20 min, 1 µM (CYP2D6): -2.59%

Cc1cccc(C(C)C)c1NC(=O)/C=C/c1ccc2oc(=O)[nH]c2c1 [Example 14, (E)-N-(2-isopropyl-6-methylphenyl)-3-(2-oxo-2,3-dihydrobenzo[d]oxazol-5-yl)acrylamide]
mPTP Rat liver pIC50 (mPTP): 6.5
solubility at 2 h [1]: 16 µM (≈ 5.38 µg/mL)
inhibition at 20 min, 1 µM (CYP2D6): -0.52%

O=C(/C=C/c1ccc2c(C3CC3)n[nH]c2c1)NC1CCc2ccccc21 (stereo not shown) [Example 33, (E)-3-(3-cyclopropyl-1H-indazol-6-yl)-N-(2,3-dihydro-1H-inden-1-yl)acrylamide]
mPTP Rat liver pIC50 (mPTP): 6.3
inhibition at 20 min, 1 µM (CYP2D6): -0.55%

Cn1c(=O)[nH]c2cc(/C=C/C(=O)NC3CCc4ccccc43)ccc21 (stereo not shown) [Example 24, (E)-N-(2,3-dihydro-1H-inden-1-yl)-3-(1-methyl-2-oxo-2,3-dihydro-1H-benzo[d]imidazol-5-yl)acrylamide]
mPTP Rat liver pIC50 (mPTP): 6.1
inhibition at 20 min, 1 µM (CYP2D6): 0.77%

Cc1n[nH]c2cc(/C=C/C(=O)NC3c4ccccc4CC3C)ccc12 (stereo not shown) [Example 38, (E)-3-(3-methyl-1H-indazol-6-yl)-N-(2-methyl-2,3-dihydro-1H-inden-1-yl)acrylamide]
mPTP Rat liver pIC50 (mPTP): 7.2
inhibition at 20 min, 1 µM (CYP2D6): 7.3%

Cc1ccccc1NC(=O)/C=C/c1ccc2oc(=O)[nH]c2c1 [Example 12, (E)-3-(2-oxo-2,3-dihydrobenzo[d]oxazol-5-yl)-N-(o-tolyl)acrylamide]
mPTP Rat liver pIC50 (mPTP): 6.5
inhibition at 20 min, 1 µM (CYP2D6): 3.05%

Cc1cc(NC(=O)/C=C/c2ccc3c(C)n[nH]c3c2)ccc1F [Example 41, (E)-N-(4-fluoro-3-methylphenyl)-3-(3-methyl-1H-indazol-6-yl)acrylamide]
mPTP Rat liver pIC50 (mPTP): 7.1
inhibition at 20 min, 1 µM (CYP2D6): 1.2%
